Measured values: the NIST ThermoML archive (doi:10.1007/s10765-005-8590-7)
± gives the expanded uncertainty stated by the source.

Assay: xn = mol fraction of the nth substance listed
Settings: Fluid (supercritical or subcritical phases), Constant-volume piezometry

## N [ammonia] + O
275.15 K, 5862 kPa, x1 = 0.0955
  mass density: 967.89 ± 0.22 kg/m3
275.15 K, 7362.2 kPa, x1 = 0.0513
  mass density: 984.54 ± 0.23 kg/m3
275.15 K, 8702.8 kPa, x1 = 0.064
  mass density: 979.9 ± 0.24 kg/m3
275.16 K, 16098 kPa, x1 = 0.047
  mass density: 989.39 ± 0.26 kg/m3
275.23 K, 5541.3 kPa, x1 = 0.0644
  mass density: 979.5 ± 0.23 kg/m3
276.15 K, 5893.5 kPa, x1 = 0.0999
  mass density: 970.55 ± 0.25 kg/m3
277.08 K, 8983.2 kPa, x1 = 0.1386
  mass density: 954.88 ± 0.23 kg/m3
277.14 K, 5409.4 kPa, x1 = 0.1086
  mass density: 963.03 ± 0.23 kg/m3
277.14 K, 9054.1 kPa, x1 = 0.064
  mass density: 979.8 ± 0.24 kg/m3
277.14 K, 16926 kPa, x1 = 0.0606
  mass density: 986.49 ± 0.26 kg/m3
277.15 K, 3335.7 kPa, x1 = 0.014
  mass density: 995.99 ± 0.23 kg/m3
277.15 K, 4008 kPa, x1 = 0.0302
  mass density: 990.84 ± 0.23 kg/m3
277.15 K, 5289 kPa, x1 = 0.1436
  mass density: 951.66 ± 0.22 kg/m3
277.15 K, 7604.3 kPa, x1 = 0.0513
  mass density: 984.44 ± 0.23 kg/m3
277.18 K, 953.2 kPa, x1 = 0.0591
  mass density: 975.15 ± 0.22 kg/m3
277.2 K, 5773.5 kPa, x1 = 0.0644
  mass density: 979.4 ± 0.23 kg/m3
277.21 K, 6487 kPa, x1 = 0.0955
  mass density: 967.76 ± 0.23 kg/m3
279.08 K, 6161.2 kPa, x1 = 0.0644
  mass density: 979.29 ± 0.23 kg/m3
279.11 K, 10157 kPa, x1 = 0.1386
  mass density: 954.73 ± 0.23 kg/m3
279.12 K, 6995.3 kPa, x1 = 0.0999
  mass density: 970.36 ± 0.25 kg/m3
279.12 K, 7195.5 kPa, x1 = 0.0955
  mass density: 967.64 ± 0.25 kg/m3
279.14 K, 3259.7 kPa, x1 = 0.0582
  mass density: 979.2 ± 0.22 kg/m3
279.15 K, 3348.5 kPa, x1 = 0.014
  mass density: 995.9 ± 0.23 kg/m3
279.15 K, 4150.8 kPa, x1 = 0.0302
  mass density: 990.74 ± 0.23 kg/m3
279.15 K, 6475.7 kPa, x1 = 0.1436
  mass density: 951.51 ± 0.22 kg/m3
279.15 K, 7945.5 kPa, x1 = 0.0513
  mass density: 984.33 ± 0.24 kg/m3
279.17 K, 9525.4 kPa, x1 = 0.064
  mass density: 979.68 ± 0.24 kg/m3
280.14 K, 6718.7 kPa, x1 = 0.1086
  mass density: 962.82 ± 0.23 kg/m3
281.08 K, 7983 kPa, x1 = 0.0955
  mass density: 967.51 ± 0.23 kg/m3
281.11 K, 11383 kPa, x1 = 0.1386
  mass density: 954.58 ± 0.23 kg/m3
281.13 K, 10065 kPa, x1 = 0.064
  mass density: 979.57 ± 0.24 kg/m3
281.14 K, 6677.8 kPa, x1 = 0.0644
  mass density: 979.17 ± 0.23 kg/m3
281.15 K, 3472.7 kPa, x1 = 0.014
  mass density: 995.8 ± 0.23 kg/m3
281.15 K, 4392.5 kPa, x1 = 0.0302
  mass density: 990.64 ± 0.23 kg/m3
281.15 K, 8371.2 kPa, x1 = 0.0513
  mass density: 984.22 ± 0.24 kg/m3
281.19 K, 10108 kPa, x1 = 0.064
  mass density: 979.56 ± 0.24 kg/m3
281.22 K, 1795.9 kPa, x1 = 0.0591
  mass density: 974.91 ± 0.22 kg/m3
282.15 K, 8409.8 kPa, x1 = 0.1436
  mass density: 951.28 ± 0.23 kg/m3
282.16 K, 8309.2 kPa, x1 = 0.0999
  mass density: 970.16 ± 0.29 kg/m3
282.8 K, 8732.9 kPa, x1 = 0.0955
  mass density: 967.39 ± 0.23 kg/m3
283.12 K, 4275.1 kPa, x1 = 0.0582
  mass density: 978.96 ± 0.23 kg/m3
283.13 K, 12686 kPa, x1 = 0.1386
  mass density: 954.43 ± 0.25 kg/m3
283.14 K, 8193.3 kPa, x1 = 0.1086
  mass density: 962.61 ± 0.23 kg/m3
283.15 K, 3692.3 kPa, x1 = 0.014
  mass density: 995.7 ± 0.23 kg/m3
283.15 K, 4731.8 kPa, x1 = 0.0302
  mass density: 990.53 ± 0.23 kg/m3
283.15 K, 8198.4 kPa, x1 = 0.1086
  mass density: 962.61 ± 0.23 kg/m3
283.15 K, 8879.5 kPa, x1 = 0.0513
  mass density: 984.1 ± 0.24 kg/m3
283.15 K, 10706 kPa, x1 = 0.064
  mass density: 979.44 ± 0.25 kg/m3
283.17 K, 7273.4 kPa, x1 = 0.0644
  mass density: 979.05 ± 0.24 kg/m3
285.09 K, 7901.4 kPa, x1 = 0.0644
  mass density: 978.93 ± 0.24 kg/m3
285.15 K, 4011.8 kPa, x1 = 0.014
  mass density: 995.59 ± 0.23 kg/m3
285.15 K, 5171.1 kPa, x1 = 0.0302
  mass density: 990.41 ± 0.23 kg/m3
285.15 K, 9527 kPa, x1 = 0.0513
  mass density: 983.98 ± 0.24 kg/m3
285.15 K, 10464 kPa, x1 = 0.1436
  mass density: 951.05 ± 0.24 kg/m3
285.15 K, 10466 kPa, x1 = 0.1436
  mass density: 951.05 ± 0.24 kg/m3
285.16 K, 11435 kPa, x1 = 0.064
  mass density: 979.32 ± 0.25 kg/m3
285.17 K, 2999.7 kPa, x1 = 0.0591
  mass density: 974.66 ± 0.23 kg/m3
285.17 K, 14062 kPa, x1 = 0.1436
  mass density: 954.28 ± 0.25 kg/m3
286.14 K, 9868.4 kPa, x1 = 0.1086
  mass density: 962.4 ± 0.24 kg/m3
287.06 K, 10858 kPa, x1 = 0.0955
  mass density: 967.09 ± 0.24 kg/m3
287.13 K, 5735.3 kPa, x1 = 0.0582
  mass density: 978.69 ± 0.23 kg/m3
287.13 K, 12206 kPa, x1 = 0.064
  mass density: 979.19 ± 0.25 kg/m3
287.15 K, 4434.3 kPa, x1 = 0.014
  mass density: 995.47 ± 0.24 kg/m3
287.15 K, 10223 kPa, x1 = 0.0513
  mass density: 983.85 ± 0.24 kg/m3
287.17 K, 8642.4 kPa, x1 = 0.0644
  mass density: 978.79 ± 0.24 kg/m3
288.13 K, 11389 kPa, x1 = 0.0999
  mass density: 969.74 ± 0.24 kg/m3
288.14 K, 11389 kPa, x1 = 0.0999
  mass density: 969.74 ± 0.24 kg/m3
288.15 K, 12628 kPa, x1 = 0.1436
  mass density: 950.81 ± 0.25 kg/m3
289.04 K, 4499.1 kPa, x1 = 0.0591
  mass density: 974.4 ± 0.23 kg/m3
289.14 K, 6552.7 kPa, x1 = 0.0582
  mass density: 978.56 ± 0.24 kg/m3
289.15 K, 4946.6 kPa, x1 = 0.014
  mass density: 995.35 ± 0.24 kg/m3
289.15 K, 6317.7 kPa, x1 = 0.0302
  mass density: 990.16 ± 0.24 kg/m3
289.15 K, 11020 kPa, x1 = 0.0513
  mass density: 983.72 ± 0.25 kg/m3
289.15 K, 11640 kPa, x1 = 0.1386
  mass density: 962.18 ± 0.26 kg/m3
289.15 K, 13114 kPa, x1 = 0.064
  mass density: 979.06 ± 0.26 kg/m3
289.21 K, 9475.8 kPa, x1 = 0.0644
  mass density: 978.66 ± 0.24 kg/m3
291.12 K, 10278 kPa, x1 = 0.0644
  mass density: 978.53 ± 0.25 kg/m3
291.13 K, 7445.3 kPa, x1 = 0.0582
  mass density: 978.41 ± 0.24 kg/m3
291.13 K, 13172 kPa, x1 = 0.0999
  mass density: 969.52 ± 0.28 kg/m3
291.15 K, 5561.2 kPa, x1 = 0.014
  mass density: 995.22 ± 0.24 kg/m3
291.15 K, 11884 kPa, x1 = 0.0513
  mass density: 983.58 ± 0.25 kg/m3
291.15 K, 14080 kPa, x1 = 0.064
  mass density: 978.92 ± 0.26 kg/m3
291.16 K, 13203 kPa, x1 = 0.0955
  mass density: 966.79 ± 0.28 kg/m3
292.14 K, 7407.7 kPa, x1 = 0.0302
  mass density: 989.96 ± 0.24 kg/m3
292.15 K, 7429.1 kPa, x1 = 0.0302
  mass density: 989.96 ± 0.24 kg/m3
293.12 K, 14421 kPa, x1 = 0.0955
  mass density: 966.65 ± 0.26 kg/m3
293.13 K, 11186 kPa, x1 = 0.0644
  mass density: 978.39 ± 0.24 kg/m3
293.14 K, 8423.6 kPa, x1 = 0.0582
  mass density: 978.27 ± 0.25 kg/m3
293.15 K, 6247.6 kPa, x1 = 0.014
  mass density: 995.09 ± 0.25 kg/m3
293.16 K, 15112 kPa, x1 = 0.064
  mass density: 978.78 ± 0.27 kg/m3
293.22 K, 6453.9 kPa, x1 = 0.0591
  mass density: 974.1 ± 0.24 kg/m3
294.15 K, 15125 kPa, x1 = 0.0999
  mass density: 969.3 ± 0.26 kg/m3
295.11 K, 8696.2 kPa, x1 = 0.0302
  mass density: 989.75 ± 0.25 kg/m3
295.12 K, 9437.2 kPa, x1 = 0.0582
  mass density: 978.12 ± 0.25 kg/m3
295.15 K, 7035 kPa, x1 = 0.014
  mass density: 994.95 ± 0.24 kg/m3
295.15 K, 12162 kPa, x1 = 0.0644
  mass density: 978.25 ± 0.25 kg/m3
295.15 K, 13851 kPa, x1 = 0.0513
  mass density: 983.31 ± 0.26 kg/m3
297.15 K, 7909.9 kPa, x1 = 0.014
  mass density: 994.81 ± 0.25 kg/m3
297.15 K, 10576 kPa, x1 = 0.0582
  mass density: 977.97 ± 0.26 kg/m3
297.21 K, 13180 kPa, x1 = 0.0644
  mass density: 978.11 ± 0.26 kg/m3
297.22 K, 8637.1 kPa, x1 = 0.0591
  mass density: 973.79 ± 0.25 kg/m3
298.16 K, 10232 kPa, x1 = 0.0302
  mass density: 989.53 ± 0.26 kg/m3
299.08 K, 11729 kPa, x1 = 0.0582
  mass density: 977.83 ± 0.26 kg/m3
299.15 K, 8841.2 kPa, x1 = 0.014
  mass density: 994.66 ± 0.26 kg/m3
299.19 K, 14184 kPa, x1 = 0.0644
  mass density: 977.97 ± 0.26 kg/m3
301.02 K, 10950 kPa, x1 = 0.0591
  mass density: 973.5 ± 0.26 kg/m3
301.11 K, 15142 kPa, x1 = 0.0644
  mass density: 977.84 ± 0.27 kg/m3
301.15 K, 9880.3 kPa, x1 = 0.014
  mass density: 994.51 ± 0.26 kg/m3
303.15 K, 10919 kPa, x1 = 0.014
  mass density: 994.37 ± 0.27 kg/m3
303.2 K, 14357 kPa, x1 = 0.0582
  mass density: 977.51 ± 0.27 kg/m3
305.11 K, 13746 kPa, x1 = 0.0591
  mass density: 973.17 ± 0.28 kg/m3
305.15 K, 12107 kPa, x1 = 0.014
  mass density: 994.21 ± 0.27 kg/m3
305.21 K, 15774 kPa, x1 = 0.0582
  mass density: 977.35 ± 0.28 kg/m3
309.15 K, 14684 kPa, x1 = 0.014
  mass density: 993.9 ± 0.28 kg/m3
